Test results from ChEMBL document CHEMBL1127069 (J Med Chem, 1993).
pEC50: −log10 of the molar value.

Key:
Type in all cases: functional
[1] = molecular target: Vanilloid receptor (Rattus norvegicus, UniProt Q9ERZ8+Q9WUD2+O35433); assay: Effective concentration for [Ca2+] uptake into dorsal root ganglia neurones in rat cultured spinal sensory neurones
[2] = species on record: Cavia porcellus; assay: In vitro effective dose for contraction of guinea pig ileum
[3] = tested on: Mus musculus; assay: In vivo analgesic dose in mouse tail flick latency model

Row | SMILES | EC50 [1] [nM] | pEC50 [2] | ED50 [3] [µmol/kg]
1 | CCCCCCCC/C(S)=N\Cc1ccc(O)c(OC)c1 | 280 | 5.91 | 38
2 | CCCCCCCC/N=C(/S)Nc1ccc(O)c(OC)c1 | 2570 | 5.59 | > 50
3 | CCCCCCCCC(=O)Nc1ccc(O)c(OC)c1 | 4480 | 5.93 | > 50
4 | CCCCCCCC/N=C(/NC#N)NCc1ccc(O)c(OC)c1 | 3280 | 5.20 | > 50
5 | CCCCCCCC/N=C(\S)NCc1ccc(O)c(OC)c1 |  |  | 3.2
6 | CCCCCCCCN(C)C(=O)Cc1ccc(O)c(OC)c1 | 6290 |  | 
7 | CCCCCCCCNC(=O)Cc1ccc(O)c(OC)c1 | 300 |  | 9.2
8 | CCCCCCCCC(=O)NCc1ccc(O)c(OC)c1 [NONIVAMIDE] |  |  | 5
9 | CCCCCCCCS(=O)(=O)NCc1ccc(O)c(OC)c1 | 1320 | 5.54 | > 50
10 | CCCCCCCCC(=O)NC(=S)NCc1ccc(O)c(OC)c1 | > 100000 |  | 
11 | CCCCCCCCNC(=O)C(O)c1ccc(O)c(OC)c1 (stereo unspecified) | 1160 |  | 
12 | CCCCCCCCC(=O)OCc1ccc(O)c(OC)c1 | 14200 |  | 
13 | COc1cc(CNC(=O)CCCC/C=C/C(C)C)ccc1O [CAPSAICIN] |  |  | 15

Continued, in another order:

Row | EC50 [1] [nM] | SMILES | pEC50 [2] | ED50 [3] [µmol/kg]
14 | 2130 | CCCCCCCCC(=O)CCc1ccc(O)c(OC)c1 |  | 
15 | > 100000 | CCCCCCCC/N=C(/S)N(C)Cc1ccc(O)c(OC)c1 |  | 
16 | > 100000 | CCCCCCCCNC(=O)/C=C/c1ccc(O)c(OC)c1 |  | 
17 | 2320 | CCCCCCCCNC(=O)CCc1ccc(O)c(OC)c1 |  | 
18 | > 100000 | CCCCCCCCC(=O)/C=C/c1ccc(O)c(OC)c1 |  | 
19 | > 100000 | CCCCCCCCCCCc1ccc(O)c(OC)c1 |  | 
20 | > 100000 | CCCCCCCCNC(=O)c1ccc(O)c(OC)c1 |  | 
21 | 17900 | CCCCCCCCNC(=O)/C=C\c1ccc(O)c(OC)c1 |  | 
22 | > 100000 | CCCCCCCCN/C(=C\[N+](=O)[O-])NCc1ccc(O)c(OC)c1 |  | 
23 | > 100000 | CCCCCCCCN/C(NCc1ccc(O)c(OC)c1)=[S+]\C.[I-] |  | 
24 | 3780 | CCCCCCCCCC(=O)Cc1ccc(O)c(OC)c1 |  | 
25 | 530 | CCCCCCCCN(C)/C(S)=N/Cc1ccc(O)c(OC)c1 |  | 
26 | 360 | CCCCCCCCNC(=O)NCc1ccc(O)c(OC)c1 |  | 
27 | > 100000 | CCCCCCCCC(=O)N(C)Cc1ccc(O)c(OC)c1 |  | 
28 | 18300 | CCCCCCCCC(=O)NCCc1ccc(O)c(OC)c1 |  | 
29 | 1170 | CCCCCCCCSC(=O)Cc1ccc(O)c(OC)c1 |  | 
30 | 670 | CCCCCCCCOC(=O)Cc1ccc(O)c(OC)c1 |  | 
